Assay results taken from US20040235922A1, “Compositions and methods for inducing adipose tissue cell death” (priority 2003, published 2004).
Entries after “also recorded” stand apart in the source; their conditions may differ. Marks after values point to notes of the source that are not given here.

Tested on: male and female ICR mice
Assay: 21 day oral (diet) treatment of mice: selected tissue weights, fat pads, BAT, muscle, organs (Example 1)
Assay type: in vivo
Details: 21 days; for Brown adipose tissue (BAT) mass compared to control/other treatments: 200 ppm clenbuterol in diet; for Brown adipose tissue (BAT) mass compared to control/other treatments / Rp and Epi/Par fat pad weights compared to control: p<0.05; for Rp and Epi/Par fat pad weights compared to control: 200 ppm clenbuterol, 800 ppm ractopamine in diet
Method: The effects of clenbuterol, a β2-AR agonist, and ractopamine, a β1/β2-AR agonist, on growth, adiposity and adipose tissue apoptosis in male and female mice have been tested by feeding diets containing control, 200 ppm clenbuterol, or 200 or 800 ppm ractopamine. Food intake (FI) was measured daily; body weight (BW) and temperatures (BT) were measured on days 0, 3, 7, 10, 14, 17, and 20. On day 21 mice were sacrificed, body composition was determined using PIXImus densitometry, and muscle and adipose tissues were collected. There were no treatment effects on BT, FI, BW, feed efficiency or body composition. Retroperitoneal (Rp) and epididymal/parametrial (Epi/Par) fat pad masses were reduced in both 800 ppm ractopamine (40±3 and 207±20 mg, respectively) and clenbuterol (35±7 and 211±22 mg) treated mice compared to control (66±8 and 319±30 mg, p<0.05). Brown adipose tissue (BAT) mass was greater (p<0.05) in clenbuterol treated mice compared to other treatments. Adipose tissue apoptosis (% DNA fragmentation) was increased in Epi/Par fat pads in clenbuterol (5.2+1.1%) and 800 ppm ractopamine (4.1±0.8%) treated mice compared to control (1.7+0.4%, p<0.05).
Animals: Five week old male (n=20) and female (n=20) ICR mice (Harlan Research Laboratories, Indianapolis, Ind.) were allowed to acclimate for one week prior to the experiment start date. Animals were housed singly in suspended wire cages and were provided ground rodent chow (ProLab® RMH 2500; Purina Mills, St. Louis, Mo.) and water ad libitum. Ambient room temperature was maintained and the light/dark cycle was 0600/1800 hours, respectively. Animals were cared for in accordance with the Guide for the Care and Use of Laboratory Animals (Institute of Laboratory Animal Resources Commission on Life Sciences National Research Council. Guide for the Care and Use of Laboratory Animals. National Academy of Sciences, 1996). Prior to the start of the study, animals were briefly anesthetized with isofluorane and an IPPT-200 transponder (programmable ID and temperature, BMDS, Seaford, Del.) was implanted subcutaneously between the scapulae.
Materials: Test articles included clenbuterol (Sigma Chemical Company, St. Louis, Mo., item # C5423) and ractopamine hydrochloride—Paylean® 9 (Elanco Animal Health, Indianapolis, Ind.). Clenbuterol is available as a pure product, and ractopamine is readily available as a type A medicated article. Paylean® 9 contains about 20 g ractopamine hydrochloride per kilogram in a ground corncob base. In order to achieve doses of 200 and 800 ppm it was necessary to add about […] of product per kilogram of diet. Control and clenbuterol diets were prepared with about 80 g of alphacel, which is a diluent used to mimic the effect of the corncob in the ractopamine product. The dose of clenbuterol used in this experiment was similar to those used in previous experiments with mice (Agbenyega E T, and Wareham A C. Effect of clenbuterol on skeletal muscle atrophy in mice induced by the glucocorticoid dexamethasone. Comp Biochem Physiol Comp Physiol 1992;102:141-145, Rothwell N. J., and Stock M J. Modification of body composition by clenbuterol in normal and dystrophic (mdx) mice. Biosci Rep 1985;5:755-760, Hyltander A, Svaninger G, and Lundholm K. The effect of clenbuterol on body composition in spontaneously eating tumour-bearing mice. Biosci Rep 1993;13:325-331, Hayes A, and Williams DA. Long-term clenbuterol administration alters the isometric contractile properties of skeletal muscle from normal and dystrophin-deficient mdx mice. Clin Exp Pharmacol Physiol 1994;21:757-765, Dupont-Versteegden EE. Exercise and clenbuterol as strategies to decrease the progression of muscular dystrophy in mdx mice. J Appl Physiol 1996;80:734-741). […]

[1] = 200 ppm in diet, male and female mice

## CC(C)(C)NCC(O)c1cc(Cl)c(N)c(Cl)c1 (centres unmarked) [Clenbuterol, clenbuterol]
  Brown adipose tissue (BAT) mass compared to control/other treatments: increased BAT mass
  Rp and Epi/Par fat pad weights compared to control: decreased mass of Rp and Epi/Par fat pads in females only
Listed as clenbuterol
  Brown adipose tissue (BAT) mass compared to control/other treatments: greater; also recorded: significantly increased
  Rp and Epi/Par fat pad weights compared to control: reduced
[1]
  BAT tissue weight, mean: .124
  Biceps tissue weight, mean: .145
  Epi/Par tissue weight, mean: .211
  Heart tissue weight, mean: .164
  Ing tissue weight, mean: .150
  Kidney tissue weight, mean: .582
  Liver tissue weight, mean: 2.14
  Rp tissue weight, mean: .035
200 ppm in diet, mice, control 66±8 mg
  Retroperitoneal (Rp) fat pad mass: 35 ± 7 mg
200 ppm in diet, mice, control 319±30 mg
  Epididymal/parametrial (Epi/Par) fat pad mass: 211 ± 22 mg
diet, ICR mice
  Muscle mass / muscle weight, body protein or fat content: no effect
females, 200 ppm in diet
  Par weight, mean: .18^b
males, 200 ppm in diet
  Epi weight, mean: .24^ab
